This assay deals with Prostate LnCAP (positive PSA). The experiment in a line: activity of PSA cleavable analogs, 48 hour exposure, PSA positive cell line. The note with it: N = 3, mean ± SD. The class given is cell-based.

The structures appear in SMILES notation.

`CC1=C2C(=C[C@@](C)(CO[Si](C)(C)C(C)(C)C)[C@@H]2OC(=O)[C@@H]2CCCN2C(=O)[C@H](CO)NC(=O)[C@@H](N)CO)C(=O)[C@](C)(O)C12CC2` [Analog 214] came in with a concentration for half-maximal inhibition (IC50) of 0.19 ± 0.03 µM.

The term IC50 denotes the midpoint of a concentration-inhibition curve. The low end stands for greater potency, the high end for weaker potency.
